Series [1] deals with T1, Notum (core, 81–451C330S) (Homo sapiens, UniProt Q6P988, C330S).
T1 construct: high-throughput biochemical assay with Notum (81–451C330S) and OPTS as a synthetic fluorescent substrate; made in house
T1 sequence (Q6P988 81-451 C330S): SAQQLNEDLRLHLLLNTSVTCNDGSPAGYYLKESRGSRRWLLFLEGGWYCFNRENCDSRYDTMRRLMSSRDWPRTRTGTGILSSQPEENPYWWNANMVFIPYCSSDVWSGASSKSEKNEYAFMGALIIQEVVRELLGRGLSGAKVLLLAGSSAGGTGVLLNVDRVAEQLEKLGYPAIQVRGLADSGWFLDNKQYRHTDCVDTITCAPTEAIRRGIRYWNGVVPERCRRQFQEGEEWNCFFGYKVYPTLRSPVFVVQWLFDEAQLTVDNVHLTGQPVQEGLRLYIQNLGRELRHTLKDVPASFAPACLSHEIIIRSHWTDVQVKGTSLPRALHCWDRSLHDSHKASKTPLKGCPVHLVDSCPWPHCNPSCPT
Kind of series: Notum-OPTS biochemical assay, Notum (81–451C330S). The note with it: for fold increase in Notum inhibition over 3a: vs 3a, more potent. Here is the method: Notum inhibitors 3–5 (Table 1, Table 2, Table 3, Table 4) were either purchased or prepared using established synthetic methods from readily available starting materials (Scheme 1). Where necessary, the synthesis of many of these amines (e.g. 6) have been reported previously and full details of their preparation have been included in the Experimental Section. Notum inhibition activity was determined using the standard Notum-OPTS biochemical assay using IC50 values. These values were used to compare relative activities with covalent inhibitors under carefully regulated assay conditions. […] Selected inhibitors were screened for inhibition of Notum activity in a TCF/LEF Reporter (Luciferase) cell line with exogenous WNT3a and Notum, and soaked into Notum crystals to determine their binding modes and evidence of MoA.
(§1) Methods have been described in detail.

The target of series [2] is T2, Notum (Homo sapiens, UniProt Q6P988).
T2 construct: host or cells: TCF/LEF Reporter (Luciferase) cell line; Notum added exogenously
T2 sequence (Q6P988 20-496): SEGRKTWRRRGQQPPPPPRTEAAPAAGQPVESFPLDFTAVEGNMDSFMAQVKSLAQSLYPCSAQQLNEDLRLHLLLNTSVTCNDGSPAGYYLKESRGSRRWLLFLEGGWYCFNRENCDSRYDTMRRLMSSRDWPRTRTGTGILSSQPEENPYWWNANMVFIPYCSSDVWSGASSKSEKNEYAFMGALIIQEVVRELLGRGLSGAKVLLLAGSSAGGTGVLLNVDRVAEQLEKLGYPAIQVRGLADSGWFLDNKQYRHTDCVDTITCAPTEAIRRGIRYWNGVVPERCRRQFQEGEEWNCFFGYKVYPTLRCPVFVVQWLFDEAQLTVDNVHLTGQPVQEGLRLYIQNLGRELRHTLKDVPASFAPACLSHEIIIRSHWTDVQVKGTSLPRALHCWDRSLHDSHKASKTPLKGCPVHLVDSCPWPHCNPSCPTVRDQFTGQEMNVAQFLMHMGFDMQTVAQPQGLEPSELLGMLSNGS
The experiment in a line: TCF/LEF Reporter (Luciferase) cell line with exogenous WNT3a and Notum. Type of series: cell-based. The note with it: for EC50: Notum (core, 81–451C330S), restoration of Wnt signalling, read-out: TCF-LEF, EC50; for restoration of Wnt signalling in the presence of Notum: concentration-response curves up to 10 μM. Here is the method: Notum inhibitors 3–5 (Table 1, Table 2, Table 3, Table 4) were either purchased or prepared using established synthetic methods from readily available starting materials (Scheme 1). Where necessary, the synthesis of many of these amines (e.g. 6) have been reported previously and full details of their preparation have been included in the Experimental Section. Notum inhibition activity was determined using the standard Notum-OPTS biochemical assay using IC50 values. These values were used to compare relative activities with covalent inhibitors under carefully regulated assay conditions. Confirmed inhibitors were routinely screened in in vitro ADME assays. Selected inhibitors were screened for inhibition of Notum activity in a TCF/LEF Reporter (Luciferase) cell line with exogenous WNT3a and Notum, and soaked into Notum crystals to determine their binding modes and evidence of MoA. […]
as §1

Series [3] can be described thus: Aqueous solubility in PBS (pH 7.4). Type of series: physicochemical. Particulars: for solubility thermodynamic: PBS, Table S2, pH 7.4, n = 2, * below lower limit of quantification, read-out: Thermodynamic Solubility @ RT; for solubility: Table 3, PBS pH 7.4. Here is the method: (§2) Selected compounds were routinely screened for aqueous solubility in PBS (pH 7.4), transit performance in MDCK-MDR1 cell lines for permeability, and metabolic stability in MLM and HLM as a measure of clearance. The main metabolites and routes of metabolism of 4y were determined in MLM. Assay protocols and additional data are presented in the Supplementary Material (Tables S1–S7). ADME studies reported in this work were performed by WuXi AppTec (Shanghai, China).
(§3) Representative assay protocols have been described in detail. ^1,2

A short description of series [4]: Stability in mouse liver microsomes. Type of series: in vitro ADME. The note with it: for microsomal CLint at 1 h: Table 3, read-out: MLM Clint. On the procedure: as §2, §3
Background: Liver microsomes are vesicles of endoplasmic reticulum, rich in cytochrome P450 enzymes.

In series [5] the test system is TCF/LEF Reporter (Luciferase) cell line. The experiment in a line: TCF/LEF reporter (Luciferase) assay with WNT3A in the absence of Notum. The class given is cell-based. Particulars: up to 10 μM. Here is the method:
(§4) Early leads 4v, 4w and 4y were then evaluated in additional pharmacology and ADME screens (Table 3). […] Screening 4w and 4y in the biochemical assay using full length Notum and OPTS confirmed potent inhibition of Notum activity.
Figure S4D. Notum TCF/LEF reporter (Luciferase) data with WNT3A (200 ng/mL) in the absence of Notum. Representative response-concentration curves are for 4w (2 of 6 shown) from a larger data set for compounds 3-5. Examples are from different screening runs.

The target in series [6] is T3, Notum (full length) (Homo sapiens, UniProt Q6P988).
T3 construct: Screening 4w and 4y in the biochemical assay using full length Notum and OPTS
T3 sequence (Q6P988 20-496): T2 sequence (Q6P988 20-496)
The experiment in a line: Notum-OPTS biochemical assay, full length Notum. Particulars: Notum (full length); read-out: OPTS, IC50. On the procedure:
as §4, §1

Series [7] is described as follows: Metabolite identification of 4y in mouse liver microsomes (LC-UV-MS). The note with it: 4y at 10 µM incubated with MLM at 37 °C for 60 min; share of total drug-related components. Type of series: in vitro ADME. Here is the method:
The test compound 4y at 10 µM was incubated with mouse liver microsomes (MLM) at 37 °C for 60 min. The positive control, 7-ethoxycoumarin (7-EC) at 10 µM, was run concurrently to assess Phase I metabolic activities in liver microsomes. […] After incubation, the samples were analysed by LC-UV-MS. The structures of the metabolites were proposed based on the interpretation of their MS and MS^2 data.
The relative abundance of 4y and each of the putative metabolites were calculated using peak area (peak area under the UV spectrum at 250-280 nm) of individual metabolite relative to the total area of all detected drug-related components (Table S6).

Series [8] is described as follows: Stability in human liver microsomes. Particulars: for half-life: human, read-out: HLM Stability t1/2. The class given is in vitro ADME. Here is the method:
as §2, §3

Where [9] appears, read: Notum (core, 81–451C330S), read-out: OPTS, IC50.
The mark [10] stands for this setting: Table 2, mean ± s.d. of n = 4–12, >10 = 20–50% inhibition @ 10 μM, read-out: Notum IC50.
The mark [11] stands for this setting: mouse, read-out: MLM Stability t1/2.
[12] abbreviates: Table 4, mean ± s.d. of n = 4–8, >10 = 20–50% inhibition @ 10 μM, read-out: Notum IC50.

Molecules are shown by their SMILES. Values after ≈ are worked out from the molar mass of the structure shown. Values joined by “and” are separate entries in the source; they are usually repeats but may differ in a detail not shown here. Equal values may be shown once. Read-outs that look alike come from different tables or passages of the source.

Turning to `CC(=O)N1CCc2c1ccc(Cl)c2C(F)(F)F` [Compound 4v, 1-(5-Chloro-4-(trifluoromethyl)indolin-1-yl)ethan-1-one], in series [1] (setting [9]), the 50% inhibitory concentration (IC50) (commonly the concentration that inhibits the measured activity by half) came out at 1.3 ± 0.3 nM. Besides, the IC50 in series [1] (setting [10]) was 1.3 ± 0.3 nM. Also, in series [2], the EC50 – broadly, the concentration giving half of the maximal effect – came to 28 ± 20 nM and the “restoration of Wnt signalling in the presence of Notum” value was “restored Wnt signalling”. In series [3], the solubility (thermodynamic) (as a rule, solubility found after equilibrating the solid with the medium) is 1.55 µg/mL (≈ 5.88 µM) and the solubility (usually the concentration that dissolves in the medium under given conditions) was determined as 1.6 µg/mL (≈ 6.07 µM). Also, in series [4], the “MLM Stability Cli” value is 650 µL/min/mg protein and the microsomal CLint at 1 h was 650 µL/min/mg. Also, the half-life in series [4] (setting [11]) was found to be 2.1 min. Also, the “assay interference or cell toxicity in the absence of Notum” value in series [5] is “not by assay interference or cell toxicity”.
With `CC(=O)n1ccc2c(Cl)c(Cl)ccc21` [Compound 5d, 1-(4,5-Dichloro-1H-indol-1-yl)ethan-1-one], the IC50 in series [1] (setting [12]) turned out to be 31 ± 4 nM. Besides, the solubility (thermodynamic) in series [3] is below 0.36 µg/mL. Also, the “MLM Stability Cli” value in series [4] is recorded as 1320 µL/min/mg protein. In addition, the half-life in series [4] (setting [11]) was 1.1 min.
On to `O=C1CCC2Cc3ccccc3N12` (stereo not drawn) [Compound 5f, 1,2,9,9a-Tetrahydro-3H-pyrrolo[1,2-a]indol-3-one], for which, in series [1] (setting [12]), the IC50 was found to be 180 ± 20 nM. In series [1], the “fold increase in Notum inhibition over 3a” value came out at 2 fold. Also, in series [3], the thermodynamic solubility was 577 µg/mL (≈ 3330 µM). Moreover, the “MLM Stability Cli” value in series [4] was 73 µL/min/mg protein. Besides, in series [4] (setting [11]), the half-life worked out at 19 min and the half-life at 1 h stood at 18 min.
Regarding `CC(=O)N1CC2(CC2)c2c(Cl)cccc21` [Compound 4y, 1-(4′-Chlorospiro[cyclopropane-1,3′-indolin]-1′-yl)ethan-1-one], the IC50 in series [1] (setting [9]) is 3.5 ± 0.6 nM. The IC50 in series [1] (setting [10]) came out at 3.5 ± 0.6 nM. Also, the IC50 in series [6] was 11 ± 1.4 nM. Moreover, in series [2], the EC50 was determined as 35 ± 13 nM and the “restoration of Wnt signalling in the presence of Notum” value is listed as “restored Wnt signalling”. Besides, in series [3], the thermodynamic solubility turned out to be 0.186 µg/mL (≈ 0.839 µM) and the solubility was 0.2 µg/mL (≈ 0.902 µM). In addition, in series [4], the “MLM Stability Cli” value is 895 µL/min/mg protein and the microsomal CLint at 1 h stood at 900 µL/min/mg. In series [4] (setting [11]), the half-life was 1.5 min. In addition, the “Relative Abundance (UV peak area %Total)” value in series [7] was 30% and 30.48%. Moreover, the “assay interference or cell toxicity in the absence of Notum” value in series [5] is reported as “not by assay interference or cell toxicity”.
For `CC(=O)N1CCc2c1cccc2C(F)(F)F` [Compound 4o, 1-(4-(Trifluoromethyl)indolin-1-yl)ethan-1-one], in series [1] (setting [10]), the 50% inhibitory concentration (IC50) is 30 ± 4 nM. In series [8], the “HLM Stability Cli” value is listed as 900 µL/min/mg protein and the half-life came out at 1.5 min.
On to `CC(=O)N1CCc2c(Cl)cccc21` [Compound 4g, 1-(4-Chloroindolin-1-yl)ethan-1-one], for which the concentration for half-maximal inhibition (IC50) in series [1] (setting [10]) was found to be 40 ± 24 nM. In series [1], the “fold increase in Notum inhibition over 3a” value came out at 10 fold. Moreover, in series [8], the “HLM Stability Cli” value came out at 640 µL/min/mg protein and the half-life came out at 2.2 min.
Turning to `CC(=O)N1CCc2ccccc21` [Compound 3a, 1-(Indolin-1-yl)ethan-1-one], the IC50 in series [1] (Table 1, mean ± s.d. of n = 2–6, inactive = <20% inhibition @ 10 μM, >10 = 20–50% inhibition @ 10 μM, 2a covalent, IC50 time-dependant, read-out: Notum IC50) turned out to be 400 ± 110 nM. Besides, the LE in series [1] (ligand efficiency from Notum OPTS IC50) is recorded as 0.75. In series [1] (lipophilic ligand efficiency from Notum OPTS IC50 and clogP), this molecule showed an LLE of 5.0. Also, the “fold more potent than 2b (Notum IC50)” value in series [1] (vs 2b) is on record as 7 fold. For the same molecule, the “MLM Stability Cli” value in series [4] was found to be 180 µL/min/mg protein. Moreover, the half-life in series [4] (setting [11]) is 8 min.
As to `CC(=O)N1CC2(CC2)c2c1cccc2C(F)(F)F` [Compound 4aa, 1-(4'-(Trifluoromethyl)spiro[cyclopropane-1,3′-indolin]-1′-yl)ethan-1-one], the IC50 in series [1] (setting [10]) amounted to 17 ± 2 nM. In addition, in series [4], the “MLM Stability Cli” value is given as 670 µL/min/mg protein. Besides, the half-life in series [4] (setting [11]) turned out to be 2 min.

Values taken from PMC10626578, “Designed switch from covalent to non-covalent inhibitors of carboxylesterase Notum activity” (European Journal of Medicinal Chemistry, 2023).
